Assay: Plasma pharmacokinetics
Format: in vivo, Sprague-Dawley rats
Settings: rat plasma, any confection treatment (CDK, CHS, CMP)

Structure (SMILES)	Detection in plasma (HPLC-MS)
Oc1cc(O)c2c(c1)OC(c1ccc(O)c(O)c1)C(O)C2 (racemic) [(±)-C, (±)-catechin]	No intact (±)-C, (±)-C/EC sulfated metabolites or unconjugated O-Me-(±)-C/EC metabolites were detected in the plasma
Oc1cc(O)c2c(c1)O[C@H](c1ccc(O)c(O)c1)[C@H](O)C2 (racemic) [(±)-EC, (−)-epicatechin]	minor component in blood

Reference: paper PMC2892903 (Journal of agricultural and food chemistry, 2010)
